Assays:
Adenosine receptor A2a [1] = biological target: T1, Adenosine receptor A2a (Homo sapiens, UniProt P29274); experiment: Displacement of [3H]CGS21680 from human A2A adenosine receptor expressed in HEK293 cells after 60 mins by liquid scintillation counting; type: cell-based
Adenosine receptor A3 = biological target: T2, Adenosine receptor A3 (Homo sapiens, UniProt P0DMS8); experiment: Displacement of […] from human A3 adenosine receptor expressed in CHO cells after 60 mins by liquid scintillation counting; type: cell-based
T2 sequence (P0DMS8 whole entry): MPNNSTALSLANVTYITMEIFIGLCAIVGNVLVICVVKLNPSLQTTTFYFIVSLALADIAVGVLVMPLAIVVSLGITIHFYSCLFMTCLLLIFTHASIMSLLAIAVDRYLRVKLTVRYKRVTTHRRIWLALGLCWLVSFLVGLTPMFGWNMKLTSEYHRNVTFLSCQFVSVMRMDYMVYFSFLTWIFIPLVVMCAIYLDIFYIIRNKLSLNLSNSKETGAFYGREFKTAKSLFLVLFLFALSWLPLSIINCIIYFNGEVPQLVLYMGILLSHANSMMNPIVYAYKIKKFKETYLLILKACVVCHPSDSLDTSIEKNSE

Adenosine receptor A1 = biological target: T3, Adenosine receptor A1 (Homo sapiens, UniProt P30542); experiment: Inhibition of human A1 adenosine receptor expressed in CHO cells after 60 mins by liquid scintillation counting; type: cell-based
T3 sequence (P30542 whole entry): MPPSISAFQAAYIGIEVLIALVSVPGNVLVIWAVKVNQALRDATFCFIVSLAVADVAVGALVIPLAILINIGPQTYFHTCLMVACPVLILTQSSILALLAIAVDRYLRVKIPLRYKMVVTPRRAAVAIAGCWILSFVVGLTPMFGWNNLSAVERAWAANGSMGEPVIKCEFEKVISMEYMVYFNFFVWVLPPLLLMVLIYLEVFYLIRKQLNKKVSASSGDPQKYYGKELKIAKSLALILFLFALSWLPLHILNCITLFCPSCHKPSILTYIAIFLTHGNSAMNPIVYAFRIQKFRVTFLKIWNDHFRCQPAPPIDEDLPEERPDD

[2] = biological target: T4, Adenosine receptor A2b (Homo sapiens) (UniProt P29275); experiment: Antagonist activity at human A2B adenosine receptor expressed in CHO cells assessed as inhibition of NECA-induced cAMP accumulation at 10 uM after 20 mins; type: functional, cell-based
T4 sequence (whole entry): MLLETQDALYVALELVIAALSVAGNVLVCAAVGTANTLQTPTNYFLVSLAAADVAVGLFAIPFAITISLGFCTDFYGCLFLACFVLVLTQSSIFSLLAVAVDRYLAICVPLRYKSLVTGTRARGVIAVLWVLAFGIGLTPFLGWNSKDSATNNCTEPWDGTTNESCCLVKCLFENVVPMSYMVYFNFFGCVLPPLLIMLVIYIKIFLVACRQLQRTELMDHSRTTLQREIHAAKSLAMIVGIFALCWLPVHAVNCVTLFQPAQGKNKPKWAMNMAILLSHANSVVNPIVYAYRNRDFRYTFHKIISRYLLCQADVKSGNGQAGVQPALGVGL

[3] = biological target: T5, Adenosine receptor A1 (Homo sapiens) (UniProt P30542); experiment: Inhibition of human A1 adenosine receptor expressed in CHO cells at 10 uM after 60 mins by liquid scintillation counting; type: cell-based
T5 sequence (whole entry): T3 sequence (P30542 whole entry)

Adenosine receptor A2a [4] = biological target: T1, Adenosine receptor A2a; experiment: Displacement of [3H]CGS21680 from human A2A adenosine receptor expressed in HEK293 cells at 10 uM after 60 mins by liquid scintillation counting; type: cell-based
[5] = biological target: T6, Adenosine receptor A3 (Homo sapiens) (UniProt P0DMS8); experiment: Displacement of […] from human A3 adenosine receptor expressed in CHO cells at 10 uM after 60 mins by liquid scintillation counting; type: cell-based
T6 sequence (whole entry): T2 sequence (P0DMS8 whole entry)

T1 sequence (P29274 whole entry): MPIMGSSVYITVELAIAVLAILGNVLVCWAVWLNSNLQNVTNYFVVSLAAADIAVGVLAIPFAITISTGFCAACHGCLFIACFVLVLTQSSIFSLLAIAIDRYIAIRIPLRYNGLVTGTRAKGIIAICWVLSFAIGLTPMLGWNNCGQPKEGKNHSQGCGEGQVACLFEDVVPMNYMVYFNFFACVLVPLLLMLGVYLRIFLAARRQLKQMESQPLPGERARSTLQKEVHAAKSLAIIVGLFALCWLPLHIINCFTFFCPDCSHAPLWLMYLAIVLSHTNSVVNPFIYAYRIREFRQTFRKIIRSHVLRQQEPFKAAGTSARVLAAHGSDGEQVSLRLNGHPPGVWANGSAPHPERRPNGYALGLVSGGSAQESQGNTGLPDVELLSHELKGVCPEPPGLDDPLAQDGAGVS

| Structure (SMILES) | Ki (Adenosine receptor A2a [1]) [µM] | Ki (Adenosine receptor A3) [µM] | Ki (Adenosine receptor A1) [µM] | inhibition [2] [%] | inhibition [3] [%] | inhibition (Adenosine receptor A2a [4]) [%] | inhibition [5] [%] |
| --- | --- | --- | --- | --- | --- | --- | --- |
| Cc1cccc(-c2nnc(NC(=O)C(C)Oc3ccccc3)[nH]2)c1 (centres undefined) | 2 | 5.9 | – | – | – | – | – |
| COc1ccccc1NC(=O)Nc1nnc(-c2ccccc2)[nH]1 | 0.2 | 0.3 | – | – | – | – | – |
| CC(=O)Nc1nnc(-c2ccccc2)[nH]1 | – | 0.3 | – | – | – | – | – |
| O=C(COCc1ccccc1)Nc1nc(-c2ccccc2)n[nH]1 | 5 | 4.6 | 8.1 | 7 | – | – | – |
| CC(C)(Oc1ccc(Cl)cc1)C(=O)Nc1nc(-c2ccccc2)n[nH]1 | – | – | – | 6 | 41 | – | – |
| C[C@@H](Sc1ccccc1)C(=O)Nc1nnc(-c2ccccc2)[nH]1 | 2.2 | 1.9 | 3.3 | – | – | – | – |
| O=C(COc1ccc2c(c1)CCC2)Nc1nc(-c2ccccc2)n[nH]1 | 3.9 | 2.2 | – | 9 | 46 | – | – |
| Cc1cccc(-c2n[nH]c(NC(=O)C(C)Oc3ccccc3)n2)c1 (centres undefined) | – | – | – | 5 | 8 | – | – |
| Cc1cccc(-c2n[nH]c(NC(=O)[C@H](C)Oc3ccccc3)n2)c1 | – | – | – | – | 13 | 23 | 32 |
| COc1ccccc1OCC(=O)Nc1nc(-c2ccc(C)cc2)n[nH]1 | – | – | – | -10 | 8 | 49 | – |
| Cc1cc(C)cc(OCC(=O)Nc2nc(-c3ccccc3)n[nH]2)c1 | – | – | – | -5 | – | – | – |
| O=C(Nc1nc(-c2ccccc2)n[nH]1)C1CCCO1 (centres undefined) | 5.9 | 3.1 | 3.2 | -7 | – | – | – |
| O=C(CCc1ccccc1)Nc1nc(-c2ccccc2)n[nH]1 | 3.4 | 8.3 | – | 40 | 40 | – | – |
| COc1ccccc1NC(=O)Nc1nc(-c2ccccc2)n[nH]1 | – | – | – | 10 | 22 | – | – |
| Cc1cccc(C)c1OCC(=O)Nc1nc(-c2ccccc2)n[nH]1 | 1.7 | 5.5 | – | 43 | 49 | – | – |
| Cc1cccc(-c2n[nH]c(NC(=O)[C@@H](C)Oc3ccccc3)n2)c1 | 1.8 | 6.3 | – | – | 12 | – | – |
| Cc1ccc(C(=O)Nc2nc(-c3ccccc3)n[nH]2)cc1 | 0.3 | 0.1 | 1.3 | 29 | – | – | – |
| O=C(Nc1nc(-c2ccccc2)n[nH]1)c1ccc(Cl)cc1 | – | – | – | -2 | 31 | – | – |
| C[C@@H](Oc1ccccc1F)C(=O)Nc1nnc(-c2ccccc2)[nH]1 | 1 | 2.6 | 3.7 | – | – | – | – |
| O=C(COc1ccccc1)Nc1nc(-c2ccccc2)n[nH]1 | – | – | – | 16 | 20 | – | – |
| C[C@@H](Oc1ccc(Cl)cc1)C(=O)Nc1nc(-c2ccccc2)n[nH]1 | 4 | 2.5 | 3.9 | 51 | – | – | – |
| Cc1cccc(O[C@H](C)C(=O)Nc2nc(-c3ccccc3)n[nH]2)c1 | – | – | – | 18 | – | – | – |
| CC(=O)Nc1nc(-c2ccccc2)n[nH]1 | – | – | – | 10 | 18 | 43 | – |
| O=C(COc1ccccc1)Nc1nnc(-c2ccccc2)[nH]1 | 1.8 | 2.3 | – | – | – | – | – |
| CCCC(=O)Nc1nnc(-c2ccccc2)[nH]1 | 1.1 | 0.2 | 0.8 | – | – | – | – |

| Structure (SMILES) | Ki (Adenosine receptor A2a [1]) [µM] | Ki (Adenosine receptor A3) [µM] | Ki (Adenosine receptor A1) [µM] | inhibition [2] [%] | inhibition [3] [%] | inhibition (Adenosine receptor A2a [4]) [%] | inhibition [5] [%] |
| --- | --- | --- | --- | --- | --- | --- | --- |
| C[C@@H](Oc1cccc(Cl)c1)C(=O)Nc1nc(-c2ccccc2)n[nH]1 | – | – | – | 28 | – | – | – |
| Cc1cccc(OCC(=O)Nc2nc(-c3ccccc3)n[nH]2)c1 | 2 | 1.5 | 2.3 | 8 | – | – | – |
| CCC(=O)Nc1nc(-c2ccccc2)n[nH]1 | 2.5 | 0.3 | – | 8 | 39 | – | – |
| O=C(Nc1nnc(-c2ccccc2)[nH]1)c1ccc(Cl)cc1 | 2.8 | 0.2 | – | – | – | – | – |
| CC[C@@H](Oc1ccccc1)C(=O)Nc1nc(-c2ccccc2)n[nH]1 | 1.4 | 1.9 | 1.5 | -9 | – | – | – |
| Cc1ccc(-c2nnc(NC(=O)COc3ccccc3)[nH]2)cc1 | 3.6 | 3.2 | 6.5 | – | – | – | – |
| O=C(Nc1nc(-c2ccccc2)n[nH]1)c1ccccc1 | – | – | – | 72 | – | – | – |
| Cc1ccc(-c2n[nH]c(NC(=O)COc3ccccc3)n2)cc1 | – | – | – | 23 | – | – | – |
| Cc1ccccc1OCC(=O)Nc1nc(-c2ccccc2)n[nH]1 | – | – | – | 13 | 16 | – | – |
| Cc1ccc(O[C@H](C)C(=O)Nc2nc(-c3ccco3)n[nH]2)cc1 | – | 5.3 | – | – | 37 | 38 | – |
| CC(C)(Oc1ccc(Cl)cc1)C(=O)Nc1nnc(-c2ccccc2)[nH]1 | 8.8 | 0.5 | – | – | – | – | – |
| Cc1ccc(O[C@H](C)C(=O)Nc2nc(-c3ccccc3)n[nH]2)cc1 | 6.4 | 1.4 | – | -6 | 38 | – | – |
| Cc1cc(C)cc(OCC(=O)Nc2nnc(-c3ccccc3)[nH]2)c1 | 3.2 | 2.7 | 1.6 | – | – | – | – |
| COc1ccccc1C(=O)Nc1nc(-c2ccccc2)n[nH]1 | 0.2 | 0.6 | 0.5 | 16 | – | – | – |
| Cc1ccccc1OCC(=O)Nc1nnc(-c2ccccc2)[nH]1 | 1.7 | 1 | – | – | – | – | – |
| C[C@@H](Oc1cccc(Cl)c1)C(=O)Nc1nnc(-c2ccccc2)[nH]1 | 1 | 2.6 | 1.1 | – | – | – | – |
| CCCC(=O)Nc1nc(-c2ccccc2)n[nH]1 | – | – | – | 5 | – | – | – |
| O=C(COc1ccccc1)Nc1nc(-c2ccc(F)cc2)n[nH]1 | 3.5 | 1.5 | – | -10 | 2 | – | – |
| O=C(Nc1nnc(-c2ccccc2)[nH]1)c1ccccc1 | 0.4 | 0.3 | 1.9 | – | – | – | – |
| C[C@@H](Sc1ccccc1)C(=O)Nc1nc(-c2ccccc2)n[nH]1 | – | – | – | 21 | – | – | – |
| C[C@@H](Oc1ccccc1F)C(=O)Nc1nc(-c2ccccc2)n[nH]1 | – | – | – | 31 | – | – | – |
| COc1ccccc1OCC(=O)Nc1nnc(-c2ccc(C)cc2)[nH]1 | – | 1 | – | – | – | – | – |
| C[C@@H](Oc1ccccc1)C(=O)Nc1nc(-c2ccccc2)n[nH]1 | 1 | 3.3 | 5.2 | 23 | – | – | – |
| Cc1cccc(O[C@H](C)C(=O)Nc2nnc(-c3ccccc3)[nH]2)c1 | 1.2 | – | – | – | – | – | – |
| COc1ccc(CC(=O)Nc2nc(-c3ccccc3)n[nH]2)cc1 | – | – | – | -6 | 29 | – | – |

— ChEMBL document CHEMBL2150932, “Structure-activity relationships and molecular modeling of 1,2,4-triazoles as adenosine receptor antagonists” (ACS Med Chem Lett, 2012)
